Data taken from patent US12522593B2, “Azacycloalkyl carbonyl cyclic amine compound” (Alivexis, Inc., priority 2022, dated 2026).
Structures can show the parent of a compound that is named as a salt.

Tests used:
CTSC in U937 cells = CTSC in U937 cells (Homo sapiens (Human), UniProt P53634); experiment: Intracellular CTSC inhibition assay (in vitro), LLOMe-induced cell death in U937 cells; assay type: cell-based; details: 3 hours culture, CellTiter-Glo
Description: 2. Intracellular CTSC Inhibition Assay (In Vitro)
A test specimen was evaluated by a degree of cell death in a case where a substrate LLOMe (L-Leucyl-L-Leucine methyl ester, hydrobromide salt, Sigma, 555045152) was added to U937 cells. The LLOMe is taken up into the cells by endocytosis and cleaved by CTSC. A product thereof induces lysosomal damage in cells and causes cell death in leukocytes and the like. Therefore, since the degree of cell death correlates with an amount of degradation of LLOMe, that is, with CTSC activity, by quantitatively analyzing the cell death, CTSC inhibitory activity of the test specimen in the cell was determined. CTSC inhibition assay was performed using a polystyrene-made white 384 well plate.
As the test specimen, a stock solution dissolved in DMSO was prepared so as to be 0.2 mmol/L, and in a case where a solution in which the stock solution was diluted 50-fold with a RPMI-1640 medium including 10% FBS was used as the maximum evaluation concentration (4000 nmol/L), a serially diluted solution was prepared by diluting the solution 3-fold with the medium. Thereafter, a 4-fold concentrated test specimen solution with the target final concentration was prepared.
U937 cells were cultured in a RPMI-1640 medium including 10% FBS, and diluted to prepare 90,000 cells/mL of cell suspension on the day of assay. 10 μL of the cell suspension was seeded per well. Next, 10 μL of the test specimen solution having a concentration 4 times the target final concentration was added thereto, and the mixture was allowed to stand for 30 minutes. Thereafter, 20 μL of a 300 μmol/L LLOMe solution dissolved in a RPMI-1640 medium including 10% FBS was added thereto, and the cells were cultured for 3 hours. After completion of the culture, 40 μL of CellTiter-Glo (registered trademark) reagent (Promega, G7570) was added to each well and mixed. After 15 minutes, 20 μL of the reaction solution in each well was transferred to a white 384 well plate, and a chemiluminescence intensity was measured with a plate reader. A 4-parameter regression analysis was performed with GraphPad Prism (manufactured by GraphPad Software) from a plot of the luminescence intensity and the sample concentration, and an IC50 value was calculated.
Results of test compounds of Formula (1) are shown in Table 2 as IC50 (nM) values for which 50% inhibition concentration is calculated based on CTSC inhibition (%). In the table, Ex indicates an example number.

human recombinant CTSC = human recombinant CTSC (Homo sapiens (Human), UniProt P53634); experiment: CTSC inhibition assay (in vitro), fluorescent substrate GF-AFC; assay type: biochemical; details: 30 μmol/L GF-AFC, pH 5.0, 25° C.
Description: 1. CTSC Inhibition Assay (In Vitro)
A test specimen was evaluated by a CTSC inhibition assay using a fluorescent substrate GF-AFC (Gly-Phe-7-Amino-4-trifluoromethylcoumarin, MP Biomedical, 03AFC03325). Since the GF-AFC is converted by CTSC to aminotrifluoromethylcoumarin having a specific fluorescence wavelength and the produced amount is proportional to CTSC activity, quantitative analysis was performed by measuring a fluorescence intensity with a plate reader. CTSC inhibition assay for each compound was performed using a polystyrene-made non-adhesive surface-treated black 384 well plate under the following conditions.
A human recombinant CTSC (R&D systems, 1071-CY) was dissolved in a CTSC active cocktail (20 ng/mL of human recombinant cathepsin L (R&D systems, 952-CY, 25 mmol/L MES/NaOH (pH: 6.0), 5 mmol/L dithiothreitol (DTT)) so as to be 100 ng/mL and incubated at 18° C. for 30 minutes. The solution was diluted with a CTSC assay buffer (50 mmol/L MES/NaOH (pH: 5.0), 50 mmol/L NaCl, 0.001% Triton X-100, mmol/L DTT) so as to be 2 ng/mL in a case of performing CTSC inhibition assay.
The test specimen was dissolved in dimethylsulfoxide (DMSO) at 10 mmol/L to prepare a stock solution. In a case where a solution in which the stock solution was diluted 15-fold with DMSO was used as the maximum evaluation concentration (0.667 mmol/L), 5-fold dilution was repeated in DMSO from the solution to prepare a serially diluted solution. 248.8 μL of the CTSC assay buffer was added to 1.12 μL of the serially diluted sample prepared in the DMSO to prepare a solution of a CTSC inhibition assay compound.
The final composition of the CTSC inhibition assay mixture was 0.66 ng/mL activated CTSC, 50 mmol/L MES/NaOH (pH: 5.0), 50 mmol/L NaCl, 0.001% Triton X-100, 5 mmol/L DTT, 30 μmol/L GF-AFC, and 0.15% DMSO, and the procedure was as follows. That is, 4 μL of the compound solution and 4 μL of the 2 ng/mL activated CTSC solution were mixed with each other in a 384 well plate and incubated at 25° C. for 30 minutes. Thereafter, 4 μL of the GF-AFC solution dissolved in the CTSC assay buffer was added to the mixture so as to be 90 μmol/L. After mixing to be uniform, a fluorescence emission intensity at 505 nm in a case of being excited at 390 nm after incubating at 25° C. for 1 hour was measured with a plate reader. A 4-parameter regression analysis was performed with GraphPad Prism (manufactured by GraphPad Software) from a plot of the fluorescence intensity at 505 nm and the sample concentration, and an IC50 value was calculated.
Results of test compounds of Formula (I) are shown in Table 1 as IC50 (nM) values for which 50% inhibition concentration is calculated based on CTSC inhibition (%). In the table, Ex indicates an example number.

human recombinant CTSC, sequence (P53634 25-134): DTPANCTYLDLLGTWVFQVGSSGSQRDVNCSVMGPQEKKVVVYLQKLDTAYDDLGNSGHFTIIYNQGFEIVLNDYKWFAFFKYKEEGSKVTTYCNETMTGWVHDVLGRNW
human recombinant CTSC, sequence (P53634 231-394): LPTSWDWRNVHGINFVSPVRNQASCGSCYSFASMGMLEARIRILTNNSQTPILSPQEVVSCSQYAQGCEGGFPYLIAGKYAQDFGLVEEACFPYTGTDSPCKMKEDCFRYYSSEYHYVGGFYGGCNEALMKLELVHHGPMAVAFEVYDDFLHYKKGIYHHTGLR
human recombinant CTSC, sequence (P53634 395-463): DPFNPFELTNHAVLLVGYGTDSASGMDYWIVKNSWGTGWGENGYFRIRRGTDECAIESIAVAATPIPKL
CTSC in U937 cells, sequence (P53634 25-463): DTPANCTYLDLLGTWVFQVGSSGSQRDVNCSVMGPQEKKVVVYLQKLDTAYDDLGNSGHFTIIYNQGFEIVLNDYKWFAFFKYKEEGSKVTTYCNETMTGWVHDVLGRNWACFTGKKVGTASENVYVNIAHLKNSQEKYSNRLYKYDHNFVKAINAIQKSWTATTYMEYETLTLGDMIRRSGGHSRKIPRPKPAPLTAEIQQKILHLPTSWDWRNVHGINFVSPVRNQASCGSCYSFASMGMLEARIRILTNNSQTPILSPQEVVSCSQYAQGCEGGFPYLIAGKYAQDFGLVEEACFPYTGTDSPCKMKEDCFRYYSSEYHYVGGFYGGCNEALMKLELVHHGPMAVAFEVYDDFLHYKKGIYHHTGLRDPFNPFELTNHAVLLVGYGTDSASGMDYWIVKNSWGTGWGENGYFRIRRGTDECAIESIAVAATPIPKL

SMILES	IC50 (CTSC in U937 cells)	IC50 (human recombinant CTSC)
CC(C)C1(c2nnc(C3CCC(F)(F)CC3)o2)CN(C(=O)[C@@H]2C[C@@H](O)C3(CCC3)CN2)C1 [Example 16, (3-(5-(4,4-difluorocyclohexyl)-1,3,4-oxadiazol-2-yl)-3-isopropylazetidine-1-yl)((7S,9R)-9-hydroxy-6-azaspiro[3.5]nonan-7-yl)methanone trifluoroacetate]	19.2 nM	3.17 nM
O=C([C@@H]1C[C@@H](O)C2(CCC2)CN1)N1CCC(c2nnn(-c3ccc(F)cc3)n2)(C(F)(F)F)CC1 [Example 95]	0.2 nM	3.02 nM
CC(C)C1(c2noc(C3CCC(F)(F)CC3)n2)CCN(C(=O)C2CCC(C)(C)CN2)CC1 (stereo not drawn) [Example 41]	6.95 nM	18.5 nM
O=C([C@@H]1C[C@@H](O)C2(CCC2)CN1)N1CCC(c2cn(C3CCC(F)(F)CC3)nn2)(C(F)(F)F)CC1 [Example 81]	13.7 nM	1.31 nM
CC(C)C1(c2nc(C3CCC(F)(F)CC3)no2)CN(C(=O)[C@@H]2C[C@@H](O)C3(CCC3)CN2)C1 [Example 19]	0.98 nM	1.23 nM
CN(C)C1(c2nc(C3CC(F)(F)C3)no2)CCN(C(=O)[C@@H]2C[C@@H](O)C3(CCC3)CN2)CC1 [Example 75]	5.01 nM	2.21 nM
O=C([C@@H]1C[C@@H](O)C2(CCC2)CN1)N1CCC(C(=O)N2CCC(C(F)(F)F)C2)(C(F)(F)F)CC1 (stereo partly drawn) [Example 35]	6.54 nM	3.39 nM
O=C([C@@H]1C[C@@H](O)C2(CCC2)CN1)N1CCC(c2nnn(-c3ccc(F)cc3)n2)CC1 [Example 89, (4-(2-(4-Fluorophenyl)-2H-tetrazol-5-yl)piperidin-1-yl)((7S,9R)-9-hydroxy-6-azaspiro[3.5]nonan-7-yl)methanone]	0.6 nM	1.45 nM
CC(C)C1(c2nc(C3CC(F)(F)C3)no2)CCN(C(=O)[C@@H]2C[C@@H](O)C3(CCC3)CN2)CC1 [Example 1, (4-(3-(3,3-Difluorocyclobutyl)-1,2,4-oxadiazol-5-yl)-4-isopropylpiperidin-1-yl)((7S,9R)-9-hydroxy-6-azaspiro[3.5]nonan-7-yl)methanone]	0.49 nM	1.63 nM
CC(C)C1(c2nc(C3CC(C)(C)C3)no2)CN(C(=O)[C@@H]2CC[C@@]3(CCO3)CN2)C1 [Example 29]	11.3 nM	1.47 nM
CC(C)C1(c2noc(C3CCC(F)(F)CC3)n2)CCN(C(=O)[C@H]2NC3CCC2CC3)CC1 [Example 23]	60.9 nM	88.8 nM
CN(CC1CCC(F)(F)CC1)C(=O)C1(C(F)(F)F)CCN(C(=O)[C@@H]2CC[C@@]3(CCO3)CN2)CC1 [Example 7]	23.6 nM	10.4 nM
O=C([C@@H]1CC[C@@]2(CCO2)CN1)N1CCC(c2nc(C3CCC(F)(F)CC3)cs2)(C(F)(F)F)CC1 [Example 4]	5.64 nM	4.85 nM
O=C([C@@H]1C[C@@H](O)C2(CCC2)CN1)N1CCC(n2nnc(-c3ccc(F)cc3F)n2)CC1 [Example 104]	0.61 nM	1.46 nM
CC1(C)CN(C(=O)c2nc(C3(C(F)(F)F)CCN(C(=O)[C@@H]4C[C@@H](O)C5(CCC5)CN4)CC3)no2)C1 [Example 53]	11.3 nM	18.7 nM
CC(NC(=O)C1(C(F)(F)F)CCN(C(=O)[C@@H]2CC[C@@]3(CCO3)CN2)CC1)C1CCC(F)(F)CC1 (stereo partly drawn) [Example 33]	7.5 nM	2.62 nM
O=C([C@@H]1C[C@@H](O)C2(CCC2)CN1)N1CCC(c2noc(C3CCC(F)(F)CO3)n2)(C(F)(F)F)CC1 (stereo partly drawn) [Example 64, (4-(5-(5,5-Difluorotetrahydro-2H-pyran-2-yl)-1,2,4-oxadiazol-3-yl)-4-(trifluoromethyl)piperidin-1-yl)((7S,9R)-9-hydroxy-6-azaspiro[3.5]nonan-7-yl)methanone]	0.74 nM	0.69 nM
CC(C)C1(c2noc(C34CC(C3)C4)n2)CCN(C(=O)[C@@H]2C[C@@H](O)C3(CCC3)CN2)CC1 [Example 72]	0.31 nM	2.48 nM
O=C([C@@H]1C[C@@H](O)C2(CCC2)CN1)N1CCC(C(=O)N2CCO[C@@H](C(F)(F)F)C2)(C(F)(F)F)CC1 [Example 37]	10.1 nM	28.4 nM
CC(C)C1(c2noc(C3CCC(F)(F)CC3)n2)CN(C(=O)[C@@H]2C[C@@H](O)C3(CCC3)CN2)C1 [Example 6]	1.06 nM	1.19 nM
CC(C)C1(C(=O)NCC2CCC(F)(F)CC2)CN(C(=O)[C@@H]2CC[C@@]3(CCO3)CN2)C1 [Example 27]	133 nM	0.24 nM
O=C([C@@H]1CC[C@@]2(CCO2)CN1)N1CCC(C(=O)NCC2CCC(F)(F)CC2)(C(F)(F)F)CC1 [Example 85]	4.12 nM	2.51 nM
O=C([C@@H]1C[C@@H](O)C2(CCC2)CN1)N1CCC(c2nnn(C3CCC(F)(F)CC3)n2)CC1 [Example 97]	3.26 nM	1.79 nM
O=C([C@@H]1C[C@@H](O)C2(CCC2)CN1)N1CCC(c2noc(C3CCCO3)n2)(C(F)(F)F)CC1 (stereo partly drawn) [Example 62]	1.62 nM	6.39 nM
CC1(C)CN[C@H](C(=O)N2CCC(c3nnn(-c4ccc(F)cc4)n3)CC2)C[C@H]1O [Example 90, (4-(2-(4-Fluorophenyl)-2H-tetrazol-5-yl)piperidin-1-yl)((2S,4R)-4-hydroxy-5,5-dimethylpiperidin-2-yl)methanone]	0.54 nM	4.34 nM
CC(C)C1(c2noc(C3CCC(F)(F)CC3)n2)CCN(C(=O)C2CCC3(CCC3)CN2)CC1 (stereo not drawn) [Example 42]	2.28 nM	7.19 nM
CC1(C)CN[C@H](C(=O)N2CCC(c3noc(C4CCC(F)(F)CC4)n3)(C(F)(F)F)CC2)C[C@H]1O [Example 56, (4-(5-(4,4-Difluorocyclohexyl)-1,2,4-oxadiazol-3-yl)-4-(trifluoromethyl)piperidin-1-yl)((2S,4R)-4-hydroxy-5,5-dimethylpiperidin-2-yl)methanone]	0.71 nM	2.06 nM
CC(C)C1(c2noc(C3CCC(F)(F)CC3)n2)CCN(C(=O)[C@@H]2C[C@@H](O)C(C)(C)CN2)CC1 [Example 36]	0.71 nM	1.88 nM
CC(C)C1(c2noc(C3CCC(F)(F)CC3)n2)CCN(C(=O)[C@H]2N[C@@H]3CC[C@H]2C3)CC1 [Example 26]	474 nM	> 200 nM
O=C([C@@H]1C[C@@H](O)C2(CCC2)CN1)N1CCC(c2nc(C3CCC(F)(F)CC3)no2)(C(F)(F)F)CC1 [Example 13]	0.19 nM	1.7 nM
